One data set has as its system CLL cells. Kind of data set: CLL cell cytotoxicity, MTS assay. To be noted: 72 hours. Format: cell-based, human. How it is done:
(§1) For cytotoxicity assays, 3×10^6 CLL cells/well were cultured in 24 well tissue culture plates in 1.5 mL of Hybridoma SFM™ (Gibco, Long Island, N.Y.) as described by Levesque et al. (Levesque et al. 2001) (Levesque et al. 2003) All cultures were incubated at 37° C., 5% CO2 in air. […] (Levesque et al. 2003)
(§2) Based on the induction of apoptosis in CLL cells, we tested several analogs of COG449 for cytotoxicity against CLL cells freshly isolated from a number of patients and against normal B-cells from healthy volunteers (Table 4). Cells were cultured with the agents for 72 hours, and the viable cells were assessed for cytotoxicity using the MTS assay. […] We also analyzed the effect of shRNA-mediated knockdown of SET on the growth of B-cell lymphoma cell lines.
A general note: Tetrazolium dyes change colour on reduction, which living cells bring about.

In a further data set the test system is normal B-cells. As to the kind of experiment: Cytotoxicity to normal B-cells from healthy volunteers, MTS assay. Format: cell-based, human. The settings on record: normal B-cells from healthy volunteers, 72 hours, read-out: Normal ED50.
Text: (§3) CLL was diagnosed according to the NCl Working Group criteria (Hallek et al. 2008). Healthy volunteers and CLL patients from the Duke University and Durham Va. Medical Centers were enrolled in IRB-approved research protocols to collect clinical data and blood. Subjects gave signed informed consent prior to phlebotomy, in accordance with the Declaration of Helsinki. Blood was collected from participants into heparin-tubes, and CLL cells were purified as noted before (Weinberg et al. 2007). Briefly, CLL cells were isolated using the RosetteSep® B cell enrichment cocktail (catalog #15024/15064; Stem Cell Technologies, Vancouver, BC, Canada) according to the manufacturer's directions. This method yielded CLL cell purity of greater than 95% CD5+CD19+ B-cells as determined by flow cytometry. Normal B-lymphocytes were isolated using the EasySep® B-cell enrichment cocktail (catalog #15024/15064; Stem Cell Technologies, Vancouver, BC, Canada) according to the manufacturer's directions, with a purity of >94% CD 19+ lymphocytes.
as §1, §2

Test in data set [1]: as above
Format: cell-based, human. The settings on record: human.
Text: as §3, §1, §2

The subject of another data set is Ramos cells. As to the kind of experiment: Growth inhibition / cytotoxicity in Ramos NHL cells. Format: cell-based, human. The method, then: FIG. 6: SET antagonism is cytotoxic to CLL cells and inhibits NHL cell growth in vitro. (A) Dose response curves for COG445 treatment of CLL cells from 7 patients or normal B-cells from 5 volunteers. (B) Dose response curves for COG449 treatment on CLL cells from 7 patients. (C) Raji NHL cells were transduced with SET shRNA or control lentivirus and knockdown was assessed by Western blotting from two samples of each.
FIG. 7: Cytotoxicity of COG449 can be modulated by a PP2A inhibitor in Ramos cells. Ramos cells were pretreated for 5 minutes with or without 1 nM OA before treatment with 1 μM COG449. After 24 hours, cytotoxicity was assessed using the […] assay reagent to detect viable cells.
as §2

In another data set the test system is SET (α and β isoforms). To be noted: 10 μM biotin-labeled peptide, pull-down on beads, Western blot. In general terms: In western blotting, separated proteins are transferred to a membrane and probed.
Where [2] appears, read: CLL cells freshly isolated from patients, read-out: CLL ED50.
[3] abbreviates: CLL cells from 7 patients, read-out: ED50 of cytotoxicity to CLL cells.

The record followed here is patent US8623601B2, “Methods of diagnosing cancer” (Cognosci, Inc., priority 2011, dated 2014).

Like-named read-outs stand apart in the source and are kept apart here. *1 amine or outer side, *2 acyl side, *3 side chain or, on linkers, in order; H or OH if unused. Bridges are numbered along the chain shown (N, C = ends). Roman numbers before positions name the chains, in order. [ ]: non-standard residue; d: D form. BMOE = O=C1CC([*:1])C(=O)N1CCN1C(=O)CC([*:2])C1=O; Aib = CC(C)(N)C(=O)O

Chain of SET (α and β isoforms) (Q01105 38-290 limits assumed): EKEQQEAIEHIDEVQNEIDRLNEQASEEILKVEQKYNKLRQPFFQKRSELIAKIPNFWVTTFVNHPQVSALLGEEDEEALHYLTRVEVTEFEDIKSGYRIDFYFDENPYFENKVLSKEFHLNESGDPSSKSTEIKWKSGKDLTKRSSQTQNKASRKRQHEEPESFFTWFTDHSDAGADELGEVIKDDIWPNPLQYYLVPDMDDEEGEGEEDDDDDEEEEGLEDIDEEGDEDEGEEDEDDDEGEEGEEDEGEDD
Method for SET (α and β isoforms): Complexes bound to Neutravidin-Agarose (NA) beads were then detected by Western blotting. Lane 1 contains 20 μg of cell lysate as a loading control. […] Lysates were incubated with biotin reagents for 1 hr before addition of NA beads and then incubated for an additional hour. After rigorous washing, the beads were boiled in SDS PAGE buffer, separated by PAGE and blotted to nitrocellulose.
CLL cells were lysed in NP40 buffer (50 mM Tris, 0.2% NP40, 150 mM NaCl) by a single freeze thaw cycle. Lysate protein concentration was adjusted to 5 mg/mL. Streptavidin agarose beads (1 mL) were washed with 10 mL of NP40 buffer, and 0.5 mL of beads was added to 1 mL of extract. ABeads were then collected by filtration through a disposable mini-column (Bio-Rad), and the flow-through extract was collected for analysis. Following washing with 100 mL of chilled NP40 buffer, the beads were removed from the column, collected by centrifugation, and 75 μL of 4× Laemmli buffer was added. Beads were vortexed and heated to 90° C. for 10 min to ensure that all proteins were released from the beads. Proteins were separated by SDS PAGE and Western blotting was used to determine if the COG133 and COG112 peptides bound to both isoforms of SET from a CLL patient sample.

For “AS(Aib)LRKL(Aib)KRLL (Ac-AS[Aib]LRKL[Aib]KRLL-NH2) [COG1410, Aib = aminoisobutyric acid]”, the EC50 in the data set with CLL cells (setting [2]) was 5.7 ± 3 µM; with normal B-cells it was more than 20 µM.

As to “I: Ac-RQIKIWFQNRRMKWKKCLRVRLASHLRKLRKRLL-NH2 / II: Ac-RQIKIWFQNRRMKWKKCLRVRLASHLRKLRKRLL-NH2 (disulfide I:17-II:17 (inferred)) [COG445]”, the EC50 in the data set on CLL cells (setting [3]) was 0.11 µM; in the data set on normal B-cells, more than 10 µM. In data set [1], this substance had an EC50 at 72 h not below 10 µM.

Turning to “I: Ac-RQIKIWFQNRRMKWKKCLRVRLASHLRKLRKRLL-NH2 / II: Ac-RQIKIWFQNRRMKWKKCLRVRLASHLRKLRKRLL-NH2 (linker I:17-II:17 via BMOE) [COG449]”, the EC50 in the data set with CLL cells (setting [3]) turned out to be 0.103 µM. The “cytotoxicity in Ramos cells” value in the data set on Ramos cells (1 μM COG449, 24 hours) was “robust cytotoxic effect”. Also, the “cytotoxicity in Ramos cells with PP2A inhibitor” value in the data set with Ramos cells (1 μM COG449 after pretreatment with 1 nM OA, 24 hours) is “partially counteracted by treatment with OA”.

Regarding LLRKRLKRLHSALRVRL [COG056], the EC50 in the data set on CLL cells (setting [2]) was 12.9 ± 4.6 µM; in the data set with normal B-cells it was more than 20 µM.

Take LRVRLASHLRKLRKRLL [COG133]: the EC50 with CLL cells (setting [2]) was 4.4 ± 1.5 µM; in the data set on normal B-cells, more than 20 µM. Besides, the “binding to SET isoforms in CLL cell lysate” value in the data set on SET (α and β isoforms) is “binds to both SET isoforms”.

On to “RQIKIWFQNRRMKWKK-C-LRVRLASHLRKLRKRLL [COG112]”, for which the results for the EC50 in the data set on CLL cells (setting [2]) and with normal B-cells were 1.4 ± 0.7 µM and more than 20 µM, respectively. The “binding to SET isoforms in CLL cell lysate” value with SET (α and β isoforms) is recorded as “binds to both SET isoforms”.

For the substance oakadaic acid [reference compound], in the data set on Ramos cells (1 nM OA alone, 24 hours), the “cytotoxicity in Ramos cells” value is reported as “not cytotoxic”.
